PubChem BioAssay (NCI)
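Five concentrations, 48 hours, 96-well plates. Abbreviation: GI50, concentration required for 50% inhibition of growth. Definition used: TGI = concentration required for complete inhibition of growth.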

Experiments:
Experiment in all cases: NCI tumour cell line growth inhibition, 48 h
SW-620 colon = system: SW-620 colon
KM12 colon = system: KM12 colon
HOP-62 NSCLC = system: HOP-62 NSCLC
SF-268 CNS = system: SF-268 CNS
U251 CNS = system: U251 CNS
RXF 393 renal = system: RXF 393 renal
SN12C renal = system: SN12C renal
LOX IMVI melanoma = system: LOX IMVI melanoma
OVCAR-3 ovarian = system: OVCAR-3 ovarian
COLO 205 colon = system: COLO 205 colon
MOLT-4 leukemia = system: MOLT-4 leukemia

| Compound | TGI (SW-620 colon) | TGI (KM12 colon) | TGI (HOP-62 NSCLC) | TGI (SF-268 CNS) | TGI (U251 CNS) | TGI (RXF 393 renal) | TGI (SN12C renal) | TGI (LOX IMVI melanoma) | TGI (OVCAR-3 ovarian) | TGI (COLO 205 colon) | TGI (MOLT-4 leukemia) | GI50 (KM12 colon) | GI50 (HOP-62 NSCLC) | GI50 (SF-268 CNS) | GI50 (U251 CNS) | GI50 (RXF 393 renal) | GI50 (SN12C renal) | GI50 (LOX IMVI melanoma) | GI50 (OVCAR-3 ovarian) | GI50 (MOLT-4 leukemia) |
| --- | --- | --- | --- | --- | --- | --- | --- | --- | --- | --- | --- | --- | --- | --- | --- | --- | --- | --- | --- | --- |
| N#CCCCC[N+]12CN3CN(CN(C3)C1)C2 | > 100 µM | > 100 µM | > 100 µM | > 100 µM | > 100 µM | > 100 µM | > 100 µM | > 100 µM | > 100 µM | > 100 µM | > 100 µM | – | – | – | – | – | – | – | – | – |
| CC(C)=CCNc1ncnc2nc[nH]c12 | > 100 µM | > 100 µM | > 100 µM | > 100 µM | > 100 µM | > 100 µM | > 100 µM | > 100 µM | > 100 µM | > 100 µM | > 100 µM | – | – | – | – | – | – | – | – | – |
| Nc1c2c(=O)[nH]c(=O)c2c(N)c2c(=O)c3ccccc3c(=O)c12 | 4.65 µM | 7.56 µM | 6.85 µM | 15.5 µM | > 90 µM | 35.6 µM | 3.17 µM | – | 4.31 µM | 1.85 µM | > 26.4 µM | – | – | – | – | – | – | – | – | – |
| O=C1c2ccccc2C(=O)c2c(Nc3ccc4c5c(cccc35)C(=O)c3ccccc3-4)cccc21 | > 100 µM | > 100 µM | > 100 µM | > 100 µM | > 100 µM | > 100 µM | > 100 µM | > 100 µM | > 100 µM | – | > 100 µM | – | – | – | – | – | – | – | – | – |
| N#CN=C(N)NC(=O)/C=C/C=C/c1ccc(Cl)cc1 | > 100 µM | > 100 µM | > 100 µM | > 100 µM | > 100 µM | > 100 µM | > 100 µM | > 100 µM | > 100 µM | > 100 µM | > 100 µM | – | – | – | – | – | – | – | – | – |
| CSc1nc(Cl)c(Br)c(Sc2nc(N)nc3nc[nH]c23)n1 | 25.3 µM | 19 µM | 8.69 µM | 14.9 µM | 16.4 µM | – | – | – | 29 µM | 33.8 µM | 18.9 µM | – | – | – | – | – | – | – | – | – |
| O=C(CSc1nc2ccccc2s1)c1sc2sc3ccccc3[n+]2c1[O-] | > 100 µM | > 100 µM | > 100 µM | > 100 µM | > 100 µM | > 100 µM | > 100 µM | > 100 µM | > 100 µM | > 100 µM | > 100 µM | – | – | – | – | – | – | – | – | – |
| COc1ccc(C(=O)Cn2c(C(=O)/C=C/c3ccco3)nc3ccccc32)cc1 | > 100 µM | > 100 µM | > 100 µM | 91.4 µM | > 100 µM | > 100 µM | > 100 µM | > 100 µM | 72.3 µM | 71.8 µM | > 100 µM | – | – | – | – | – | – | – | – | – |
| CN(C)c1ccc(/C=c2/c3ccccc3n3nc4ccccc4c23)cc1 | > 100 µM | > 100 µM | > 100 µM | > 100 µM | > 100 µM | 66.8 µM | > 100 µM | > 100 µM | > 100 µM | 50.9 µM | > 100 µM | – | – | – | – | – | – | – | – | – |
| O=c1ccc2nc(-c3ccccc3)nn(-c3ccccn3)c-2c1 | – | 70.2 µM | 82.9 µM | 41 µM | 42.4 µM | 3.3 µM | 37.9 µM | 25.3 µM | 3.15 µM | – | 6.21 µM | 25.5 µM | 21.8 µM | 19 µM | 17.2 µM | 1.79 µM | 16.9 µM | 4.03 µM | 1.69 µM | 1.79 µM |
| CC(=O)OC(C)C1C2=C(C(=O)CC1(C)O)C(=O)c1c(ccc(-c3ccc4c(c3O)C(=O)C3=C(C4=O)C(C(C)OC(C)=O)C(C)(O)CC3=O)c1O)C2=O (centres undefined) | 2.1 µM | 10.6 µM | 33.4 µM | 19.4 µM | 12.9 µM | 3.59 µM | 6.58 µM | 3.07 µM | 5.29 µM | 1.92 µM | > 100 µM | – | – | – | – | – | – | – | – | – |
| COc1ccc(C2CC(c3ccccc3)=Nc3c(-c4ccccc4)nnn32)cc1 (centres undefined) | > 100 µM | > 100 µM | > 100 µM | > 100 µM | > 100 µM | – | > 100 µM | > 100 µM | > 100 µM | > 100 µM | > 100 µM | – | – | – | – | – | – | – | – | – |
| O=C1CC(O)c2c(Br)sc(Br)c21 (centres undefined) | 4.53 µM | 20.8 µM | 24.5 µM | 43.8 µM | 16.4 µM | 5.51 µM | 34.2 µM | 20.4 µM | 19.9 µM | 31 µM | 4.61 µM | – | – | – | – | – | – | – | – | – |
| COc1ccc(C[C@H](N)C(=O)NC2C(CO)OC(n3cnc4c(N(C)C)ncnc43)C2O)cc1 (some centres undefined) | – | 1.32 µM | 2.07 µM | 2.61 µM | 0.131 µM | 0.73 µM | – | 0.288 µM | – | 0.302 µM | 0.412 µM | – | – | – | – | – | – | – | – | – |
| CC(=O)Nc1ccc(NC(=O)c2c(Cl)c(Cl)c(Cl)c(Cl)c2-c2nc3ccccc3[nH]2)cc1 | > 100 µM | > 100 µM | > 100 µM | > 100 µM | – | 81.5 µM | > 100 µM | – | > 100 µM | 39.8 µM | 98.7 µM | – | – | – | – | – | – | – | – | – |
| Nc1nc(N)c2c(n1)NC(=O)c1c(c3ccccc3n1Cc1ccc(Cl)cc1)C2 | > 100 µM | – | 57.5 µM | > 100 µM | > 100 µM | 33.4 µM | 38.2 µM | 56.4 µM | 56.5 µM | 30.5 µM | 72 µM | – | – | – | – | – | – | – | – | – |
| CC(C)c1cc(CN(C)C)c(O)c(C(C)(C)C)c1 | 36.4 µM | 46.2 µM | 62.9 µM | 58.4 µM | 30 µM | 37.2 µM | 33.1 µM | 32.5 µM | 31.2 µM | 36.7 µM | 42.5 µM | – | – | – | – | – | – | – | – | – |
| C=CC[N+]12CN3CN(CN(C3)C1)C2 | > 100 µM | 66.8 µM | > 100 µM | 72.3 µM | > 100 µM | 38 µM | 60.2 µM | 83 µM | > 100 µM | 65.9 µM | 57.5 µM | – | – | – | – | – | – | – | – | – |
| N=C(c1ccc2ccccc2c1)c1ccccc1Cc1ccccc1 | > 100 µM | > 100 µM | > 100 µM | – | > 100 µM | 34.4 µM | > 100 µM | > 100 µM | 57.3 µM | > 100 µM | 67.8 µM | – | – | – | – | – | – | – | – | – |
| CC(C)(C)c1cc(C2NCCO2)cc(C(C)(C)C)c1O (centres undefined) | > 100 µM | > 100 µM | > 100 µM | > 100 µM | > 100 µM | 37.8 µM | > 100 µM | > 100 µM | > 100 µM | > 100 µM | > 100 µM | – | – | – | – | – | – | – | – | – |
| NC(=O)C(N)=O | > 100 µM | > 100 µM | > 100 µM | > 100 µM | > 100 µM | > 100 µM | > 100 µM | > 100 µM | > 100 µM | > 100 µM | > 100 µM | – | – | – | – | – | – | – | – | – |
| CCOC(=O)C12CCC(=O)C=C1[C@@H](C)C(=O)CC2 (some centres undefined) | > 100 µM | > 100 µM | > 100 µM | > 100 µM | > 100 µM | > 100 µM | > 100 µM | > 100 µM | > 100 µM | > 100 µM | – | – | – | – | – | – | – | – | – | – |
| COc1ccc(-c2c(=O)[nH]n3c(=S)nc(-c4ccccc4)[nH]c23)cc1OC | 83.8 µM | 35.8 µM | 84.9 µM | > 100 µM | 58.5 µM | 32.4 µM | 37.3 µM | 37 µM | – | 31.3 µM | 33.4 µM | – | – | – | – | – | – | – | – | – |
| COc1cc(NC(C)=O)ccc1C(=O)N/N=C/c1ccc(Cl)cc1Cl | > 100 µM | > 100 µM | > 100 µM | > 100 µM | – | 72.5 µM | 64.6 µM | > 100 µM | > 100 µM | > 100 µM | > 100 µM | – | – | – | – | – | – | – | – | – |
| CC(C)(C)N1C(C(=O)c2ccccc2)C1c1ccccc1 (centres undefined) | > 100 µM | > 100 µM | > 100 µM | – | > 100 µM | > 100 µM | > 100 µM | > 100 µM | > 100 µM | > 100 µM | > 100 µM | – | – | – | – | – | – | – | – | – |
| C#CCOc1c(C(=O)OCC)c(=O)n(C)c2ccccc12 | > 100 µM | – | – | > 100 µM | > 100 µM | – | > 100 µM | > 100 µM | > 100 µM | > 100 µM | > 100 µM | – | – | – | – | – | – | – | – | – |
| O=C(CNc1cccc([N+](=O)[O-])c1)Nn1c(-c2ccccc2)nc2ccccc2c1=O | 2.05 µM | 4.42 µM | 4.25 µM | 4.22 µM | 2.88 µM | 1.08 µM | 2.73 µM | 0.663 µM | 5.15 µM | 3.17 µM | 0.818 µM | – | – | – | – | – | – | – | – | – |
